Source: the supplement of paper PMC11451515

Experiments:
Details in all cases: 48 h
P12-Ichikawa [1] = test: cell viability relative to DMSO control; higher = less cytotoxic
Outline: (§1)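 Library compounds in DMSO were pin-dosed in an 11-point threefold series (47 μM to 0.79 nM) onto leukemia cells in 1536-well plates (5 μl). Plates held 500 cells/well of NOMO1 or SEM or 1000 cells/well of P12-Ichikawa, each adapted for at least four passages in each medium. Luminescence was read with CellTiter-Glo One after 48 h at 37°C. Viability means the per-plate percentage relative to DMSO wells, using cell-free wells as background.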

SEM cells [2] = test: as above
Outline: as §1

NOMO1 [3] = test: AUC of viability dose-response curve (% viability x log10 dose units); higher = less sensitive
Outline: (§2)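 Over 48 h at 37°C, leukemia cells in 1536-well plates (500 or 1000 cells/well), adapted to each medium, received library compounds in DMSO at 11 threefold doses from 47 μM to 0.79 nM. CellTiter-Glo One luminescence, normalised per plate to DMSO and cell-free wells, was fitted by a four-parameter log-logistic function of log10 dose. The area under the curve was then integrated by trapezoidal rule, after scaling curves above full viability and removing those that failed quality control.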

P12-Ichikawa [4] = test: as above
Outline: as §2

SEM cells [5] = test: as above
Outline: as §2

NOMO1 [6] = test: cell viability relative to DMSO control; higher = less cytotoxic
Outline: as §1

Cc1cc(O)c2c(c1)C(=O)c1cccc(O)c1C2=O
cell viability [%]
Details	P12-Ichikawa [1]	SEM cells [2]
HPLM + 10% dialyzed FBS, 0.000781 µM	112	99.4
HPLM + 10% dialyzed FBS, 0.00234 µM	119	121
HPLM + 10% dialyzed FBS, 0.00702 µM	119	126
HPLM + 10% dialyzed FBS, 0.0211 µM	127	100
HPLM + 10% dialyzed FBS, 0.0632 µM	121	122
HPLM + 10% dialyzed FBS, 0.19 µM	137	133
HPLM + 10% dialyzed FBS, 0.569 µM	128	135
HPLM + 10% dialyzed FBS, 1.71 µM	133	135
HPLM + 10% dialyzed FBS, 5.12 µM	122	116
HPLM + 10% dialyzed FBS, 15.4 µM	113	70.5
HPLM + 10% dialyzed FBS, 46.1 µM	87.1	71.6
RPMI 5 mM glucose + 10% dialyzed FBS, 0.000781 µM	–	117
RPMI 5 mM glucose + 10% dialyzed FBS, 0.00234 µM	–	111
RPMI 5 mM glucose + 10% dialyzed FBS, 0.00702 µM	–	124
RPMI 5 mM glucose + 10% dialyzed FBS, 0.0211 µM	–	109
RPMI 5 mM glucose + 10% dialyzed FBS, 0.0632 µM	–	137
RPMI 5 mM glucose + 10% dialyzed FBS, 0.19 µM	–	140
RPMI 5 mM glucose + 10% dialyzed FBS, 0.569 µM	–	134
RPMI 5 mM glucose + 10% dialyzed FBS, 1.71 µM	–	110
RPMI 5 mM glucose + 10% dialyzed FBS, 5.12 µM	–	123
RPMI 5 mM glucose + 10% dialyzed FBS, 15.4 µM	–	81.2
RPMI 5 mM glucose + 10% dialyzed FBS, 46.1 µM	–	64.7

AUC of viability dose-response curve
Details	NOMO1 [3]	P12-Ichikawa [4]	SEM cells [5]
HPLM + 10% dialyzed FBS	460	465	445
RPMI 5 mM glucose + 10% FBS	475	472	439
RPMI 5 mM glucose + 10% dialyzed FBS	460	466	449

CCc1cc2c(cc1N1CCC(N3CCOCC3)CC1)C(C)(C)c1[nH]c3cc(C#N)ccc3c1C2=O
cell viability [%]
Details	NOMO1 [6]	P12-Ichikawa [1]	SEM cells [2]
HPLM + 10% dialyzed FBS, 0.000781 µM	83.9	100	60.6
HPLM + 10% dialyzed FBS, 0.00234 µM	68.5	99.5	55
HPLM + 10% dialyzed FBS, 0.00702 µM	94.7	110	70.7
HPLM + 10% dialyzed FBS, 0.0211 µM	117	130	102
HPLM + 10% dialyzed FBS, 0.0632 µM	135	138	122
HPLM + 10% dialyzed FBS, 0.19 µM	151	130	121
HPLM + 10% dialyzed FBS, 0.569 µM	134	131	114
HPLM + 10% dialyzed FBS, 1.71 µM	121	121	99
HPLM + 10% dialyzed FBS, 5.12 µM	105	116	95.6
HPLM + 10% dialyzed FBS, 15.4 µM	102	115	70.2
HPLM + 10% dialyzed FBS, 46.1 µM	68.3	65.3	28.1
RPMI 5 mM glucose + 10% FBS, 0.000781 µM	91.1	73.7	53.8
RPMI 5 mM glucose + 10% FBS, 0.00234 µM	83.2	73.3	49.4
RPMI 5 mM glucose + 10% FBS, 0.00702 µM	102	97.2	71.1
RPMI 5 mM glucose + 10% FBS, 0.0211 µM	119	134	77.1
RPMI 5 mM glucose + 10% FBS, 0.0632 µM	126	126	107
RPMI 5 mM glucose + 10% FBS, 0.19 µM	132	124	107
RPMI 5 mM glucose + 10% FBS, 0.569 µM	124	130	103
RPMI 5 mM glucose + 10% FBS, 1.71 µM	112	100	96.7
RPMI 5 mM glucose + 10% FBS, 5.12 µM	117	110	88.3
RPMI 5 mM glucose + 10% FBS, 15.4 µM	114	107	46.7
RPMI 5 mM glucose + 10% FBS, 46.1 µM	58.8	102	12.8
RPMI 5 mM glucose + 10% dialyzed FBS, 0.000781 µM	80.3	86.2	60.3
RPMI 5 mM glucose + 10% dialyzed FBS, 0.00234 µM	73.9	81.9	54.3
RPMI 5 mM glucose + 10% dialyzed FBS, 0.00702 µM	71.7	108	73.8
RPMI 5 mM glucose + 10% dialyzed FBS, 0.0211 µM	107	127	97.7
RPMI 5 mM glucose + 10% dialyzed FBS, 0.0632 µM	125	136	111
RPMI 5 mM glucose + 10% dialyzed FBS, 0.19 µM	133	128	129
RPMI 5 mM glucose + 10% dialyzed FBS, 0.569 µM	120	125	103
RPMI 5 mM glucose + 10% dialyzed FBS, 1.71 µM	111	118	114
RPMI 5 mM glucose + 10% dialyzed FBS, 5.12 µM	115	109	108
RPMI 5 mM glucose + 10% dialyzed FBS, 15.4 µM	110	122	70.8
RPMI 5 mM glucose + 10% dialyzed FBS, 46.1 µM	52.1	96.5	20.3

P12-Ichikawa [4]
Details	AUC of viability dose-response curve
HPLM + 10% dialyzed FBS	464
RPMI 5 mM glucose + 10% FBS	443
RPMI 5 mM glucose + 10% dialyzed FBS	451

CC[C@@H]1C(=O)N(C)c2cnc(Nc3ccc(C(=O)NC4CCC(N5CCN(CC6CC6)CC5)CC4)cc3OC)nc2N1C(C)C (some centres not stated)
AUC of viability dose-response curve
Details	NOMO1 [3]	P12-Ichikawa [4]	SEM cells [5]
HPLM + 10% dialyzed FBS	276	201	199
RPMI 5 mM glucose + 10% FBS	259	225	227
RPMI 5 mM glucose + 10% dialyzed FBS	259	225	221

Cc1nc(NC(=O)N2CCC[C@H]2C(N)=O)sc1-c1csc(C(C)(C)C)n1
AUC of viability dose-response curve
Details	NOMO1 [3]	P12-Ichikawa [4]	SEM cells [5]
HPLM + 10% dialyzed FBS	323	331	309
RPMI 5 mM glucose + 10% FBS	346	334	302
RPMI 5 mM glucose + 10% dialyzed FBS	335	350	312

C=CCNc1c(O)cc2c(O)c1C[C@@H](C)C[C@H](OC)[C@H](O)[C@@H](C)/C=C(/C)[C@H](OC(N)=O)[C@@H](OC)/C=C\C=C(\C)C(=O)N2
AUC of viability dose-response curve
Details	NOMO1 [3]	P12-Ichikawa [4]	SEM cells [5]
HPLM + 10% dialyzed FBS	419	428	336
RPMI 5 mM glucose + 10% FBS	411	398	324
RPMI 5 mM glucose + 10% dialyzed FBS	401	410	305

Cc1cn[nH]c1
cell viability [%], SEM cells [2]
Details	HPLM + 10% dialyzed FBS	RPMI 5 mM glucose + 10% dialyzed FBS
0.000781 µM	89.9	106
0.00234 µM	115	121
0.00702 µM	121	119
0.0211 µM	115	131
0.0632 µM	118	123
0.19 µM	122	131
0.569 µM	121	138
1.71 µM	121	123
5.12 µM	114	143
15.4 µM	69	94.6
46.1 µM	95.6	115

AUC of viability dose-response curve
Details	NOMO1 [3]	P12-Ichikawa [4]	SEM cells [5]
HPLM + 10% dialyzed FBS	456	461	456
RPMI 5 mM glucose + 10% FBS	471	469	458
RPMI 5 mM glucose + 10% dialyzed FBS	465	461	476
